Measured values as given in patent publication US11793746B2, “Intense skin hydration systems and methods” (priority 2020, dated 2023).

Columns and labels:
[1] = test system: collagen I and III synthesis; assay: [3H]-Proline incorporation as measure of collagen deposition; assay type: cell-based, human
From the text: This human skin substrate consists of neonatal foreskin fibroblasts that secrete a functionally active extracellular matrix grown on a medical-grade nylon mesh cocultured with human neonatal foreskin keratinocytes that differentiate into a multilayered epidermis.
Quantifying proline incorporation can be used to measure potential collagen deposition stimulated by a test substance. This concept is the foundation for the following experiments.

[2] = test system: PGE2 synthesis by 3T3 fibroblasts; assay: Inhibition of PGE2 synthesis by 3T3 fibroblasts (ELISA); assay type: cell-based; conditions: for [PGE2]: 24 h
From the text: This Example establishes the anti-inflammatory potential of GC-100 by measuring the inhibition of PGE2 synthesis by 3T3 fibroblasts in cell culture.
The cells are nourished in a medium enriched with arachidonic acid which leads to increased secretion of eicosanoids into the medium.
The formation of prostaglandin PGE2 will be followed as a marker of eicosanoid synthesis, because it is a stable molecule secreted preferentially by 3T3 fibroblasts. The anti-inflammatory potential of an active ingredient may then be investigated by following the decrease in secretion of PGE2 in the culture medium.
Quantification of PGE2 will be achieved using an enzyme-linked immunosorbant assay (ELISA). In principle, the PGE2 expressed by the cells in culture medium will compete with enzyme-linked PGE2 for available antibody, which is a constant. The concentration of enzyme-linked PGE2 is also constant and quantified prior to testing. The enzyme linked to PGE2 prior to testing is acetylcholinesterase. Since the quantity of PGE2 expressed by 3T3 cells in culture will vary based on the concentration of GC-100 present, the amount of antibody available to bind to the enzyme-linked PGE2 versus that produced by the 3T3 cells assumes an inverse relationship that is dependent on Brownian motion. After eliminating unreacted PGE2 through washing, substrate is added that binds to the enzyme-PGE2-antibody complex to generate a yellow color that is strongly evident using spectrophotometer set at 412 nm. The amount of light transmitted through the test sample is directly proportional to the intensity of the color change and, consequently, to the concentration of PGE2-enzyme-antibody complex.
Create a mother solution (solution #1) containing complete DMEM, alcohol, and 2×10^5 3T3 fibroblasts for plating onto 25 cm^2 culture dishes. Using a compounding dilution technique, prepare the following solutions, using 5 mL of media per plate: • Solution #2: Solution #1 plus arachidonic acid (10^−3% P/V) • Solution #3: Solution #2 plus indomethacin (0,1,10^−3% P/V) • Solution #4: Solution #2 plus GC-100 0.5% • Solution #5: Solution #2 plus GC-100 1.0%
Incubate all preparations for 24 hours at 37° C. Recover the supernatant media, and if needed deep freeze it at −20° C. before quantification. Count the number of surviving cells using a coulter counter. Establish a calibration curve of the quantity of PGE2. Quantify the supernatant media using an enzyme-linked immunosorbant assay kit specific for PGE2 (Cayman), using a Dynotech microplate reader (MR500) with a filter set at 412 nm. Calculate the % inhibition of PGE2 synthesis. The results are shown in Table 4 and FIG. 10, which is a graph showing mean suppression of PGE2 concentration in test media comprising indomethacin or GC-100.

[3] = DMEM + AA + Indomethacin, column A
[4] = DMEM + AA + Indomethacin, column B
[5] = DMEM + AA + Indomethacin, column C

SMILES: O=C1O[C@H]([C@@H](O)CO)C(O)=C1O [ascorbic acid]
- influence of ascorbic acid on proline incorporation ([1]; higher than optimal concentrations of ascorbic acid): suppress proline incorporation

SMILES: COc1ccc2c(c1)c(CC(=O)O)c(C)n2C(=O)c1ccc(Cl)cc1 [Indomethacin, indomethacin, reference compound]
- % change of PGE2 vs DMEM + AA, MEAN ([2]; DMEM + AA + Indomethacin): −87.2%
- % change of PGE2 vs DMEM + AA [2, 3]: −91%
- [PGE2] [2, 3]: 0.27 pg/mL
- % change of PGE2 vs DMEM + AA [2, 4]: −88%
- [PGE2] [2, 4]: 0.35 pg/mL
- % change of PGE2 vs DMEM + AA [2, 5]: −82.6%
- [PGE2] [2, 5]: 0.50 pg/mL
- suppression of PGE2 expression ([2]; indomethacin): 87%

SMILES: ClCc1ccccc1 [benzyl chloride]
- proline incorporation relative to control levels [1]: suppress proline incorporation below control levels
